Residues, ends and D or L forms follow the SMILES beside them. *: point of attachment. FITC = O=C1OC2(c3ccc(O)cc3Oc3cc(O)ccc32)c2ccc(NC(=S)*)cc21
Columns and labels:
[1] = Drug distribution in Escherichia coli 25922 assessed as red fluorescence signal at 1 time MIC concentration incubated for 30 mins in absence of light by Propidium iodide staining based assay; format: ADME; conditions: 0.5 h
[2] = Drug distribution in Staphylococcus aureus 29213 assessed as green fluorescence signal covered all the bacterial cell at 1 time MIC concentration incubated for 30 mins in absence of light by 3D-SIM super resolution microscopy; format: ADME; conditions: 0.5 h
[3] = Drug distribution in Escherichia coli 25922 assessed as green fluorescence signal covered all the bacterial cell at 1 time MIC concentration incubated for 30 mins in absence of light by 3D-SIM super resolution microscopy; format: ADME; conditions: 0.5 h
[4] = Drug distribution in Staphylococcus aureus 29213 assessed as red fluorescence signal at 1 time MIC concentration incubated for 30 mins in absence of light by Propidium iodide staining based assay; format: ADME; conditions: 0.5 h
[5] = system: Salmonella typhimurium; experiment: Antimicrobial activity against Salmonella typhimurium 14028 assessed as bacterial killing measured after 16 hrs incubation; format: functional, Salmonella enterica subsp. enterica serovar Typhimurium; conditions: Salmonella enterica
[6] = Cytotoxicity against porcine IPEC-J2 cells assessed as cell survival rate measured after 8 hrs by MTT assay; format: toxicity, cell-based, Sus scrofa; conditions: pig
[7] = system: Escherichia coli; experiment: Antimicrobial activity against Escherichia coli 25922 assessed as absence bacterial growth measured after 18 to 24 hrs incubation in presence of 25% serum by NCCLS method; format: functional; conditions: time 18-24 hrs
[8] = system: Bacillus cereus; experiment: Antimicrobial activity against Bacillus cereus 1.932 assessed as bacterial killing measured after 16 hrs incubation; format: functional
[9] = system: Staphylococcus aureus; experiment: Antimicrobial activity against Methicillin-resistant Staphylococcus aureus 43300 assessed as absence bacterial growth measured after 18 to 24 hrs incubation by NCCLS method; format: functional; conditions: time 18-24 hrs
[10] = system: Escherichia coli; experiment: Antimicrobial activity against Escherichia coli K88 assessed as absence bacterial growth measured after 18 to 24 hrs incubation by NCCLS method; format: functional; conditions: time 18-24 hrs
[11] = system: Escherichia coli; experiment: Antimicrobial activity against Escherichia coli 25922 assessed as absence bacterial growth measured after 18 to 24 hrs incubation in presence of KCl by NCCLS method; format: functional; conditions: time 18-24 hrs
[12] = Antimicrobial activity against Salmonella pullorum C7913 assessed as absence bacterial growth measured after 18 to 24 hrs incubation by NCCLS method; format: functional, Salmonella enterica subsp. enterica serovar Pullorum; conditions: Salmonella enterica, time 18-24 hrs
[13] = system: Escherichia coli; experiment: Antimicrobial activity against Escherichia coli 25922 assessed as absence bacterial growth measured after 18 to 24 hrs incubation in presence of MgCl2 by NCCLS method; format: functional; conditions: time 18-24 hrs
[14] = system: Pseudomonas aeruginosa; experiment: Antimicrobial activity against Pseudomonas aeruginosa 27853 assessed as bacterial killing measured after 16 hrs incubation; format: functional
[15] = system: Staphylococcus aureus; experiment: Antimicrobial activity against Staphylococcus aureus 29213 assessed as absence bacterial growth measured after 18 to 24 hrs incubation by NCCLS m; format: functional; conditions: time 18-24 hrs
[16] = system: Staphylococcus aureus; experiment: Antimicrobial activity against Methicillin-resistant Staphylococcus aureus 43300 assessed as bacterial killing measured after 16 hrs incubation; format: functional
[17] = system: Escherichia coli; experiment: Antimicrobial activity against Escherichia coli 25922 assessed as absence bacterial growth measured after 18 to 24 hrs incubation in presence of NH4Cl by NCCLS method; format: functional; conditions: time 18-24 hrs
[18] = system: Erythrocyte; experiment: Hemolytic activity in human RBC at effective concentration measured after 1 hr by microplate reader analysis; format: toxicity, cell-based
[19] = system: Staphylococcus aureus; experiment: Antimicrobial activity against Staphylococcus aureus 29213 assessed as absence bacterial growth measured after 18 to 24 hrs incubation by NCCLS method; format: functional; conditions: time 18-24 hrs
[20] = Hemolytic activity in human RBC at effective concentration at 128 uM measured after 1 hr by microplate reader relative to control; format: toxicity, cell-based, Erythrocyte; conditions: human red blood cells (erythrocytes), read-out: Activity
[21] = system: Staphylococcus epidermidis; experiment: Antimicrobial activity against Staphylococcus epidermidis 12228 assessed as bacterial killing measured after 16 hrs incubation; format: functional
[22] = system: Escherichia coli; experiment: Antimicrobial activity against Escherichia coli 25922 assessed as absence bacterial growth measured after 18 to 24 hrs incubation in presence of 50% serum by NCCLS method; format: functional; conditions: time 18-24 hrs
[23] = system: Pseudomonas aeruginosa; experiment: Antimicrobial activity against Pseudomonas aeruginosa 27853 assessed as absence bacterial growth measured after 18 to 24 hrs incubation by NCCLS method; format: functional; conditions: time 18-24 hrs
[24] = system: Escherichia coli; experiment: Antimicrobial activity against Escherichia coli 25922 assessed as absence bacterial growth measured after 18 to 24 hrs incubation in presence of FeCl3 by NCCLS method; format: functional; conditions: time 18-24 hrs
[25] = system: Escherichia coli; experiment: Antimicrobial activity against Escherichia coli 25922 assessed as absence bacterial growth measured after 18 to 24 hrs incubation in presence of ZnCl2 by NCCLS method; format: functional; conditions: time 18-24 hrs
[26] = system: Enterococcus faecalis; experiment: Antimicrobial activity against Enterococcus faecalis 29212 assessed as bacterial killing measured after 16 hrs incubation; format: functional
[27] = Cytotoxicity against porcine IPEC-J2 cells assessed as cell survival rate at 64 uM measured after 8 hrs by MTT assay relative to control; format: toxicity, cell-based, Sus scrofa; conditions: pig, read-out: Activity
[28] = system: Salmonella typhimurium; experiment: Antimicrobial activity against Salmonella typhimurium C7731 assessed as bacterial killing measured after 16 hrs incubation; format: functional, Salmonella enterica subsp. enterica serovar Typhimurium; conditions: Salmonella enterica
[29] = system: Salmonella typhimurium; experiment: Antimicrobial activity against Salmonella typhimurium 14028 assessed as absence bacterial growth measured after 18 to 24 hrs incubation by NCCLS method; format: functional, Salmonella enterica subsp. enterica serovar Typhimurium; conditions: Salmonella enterica, time 18-24 hrs
[30] = Cytotoxicity against human HEK-293T cells assessed as cell survival rate at 64 uM measured after 8 hrs by MTT assay relative to control; format: toxicity, cell-based; conditions: read-out: Activity
[31] = system: Escherichia coli; experiment: Antimicrobial activity against Escherichia coli 25922 assessed as absence bacterial growth measured after 18 to 24 hrs incubation by NCCLS method; format: functional; conditions: time 18-24 hrs
[32] = system: Staphylococcus aureus; experiment: Antimicrobial activity against Staphylococcus aureus 25923 assessed as bacterial killing measured after 16 hrs incubation; format: functional
[33] = system: Listeria monocytogenes; experiment: Antimicrobial activity against Listeria monocytogenes 1.10753 assessed as absence bacterial growth measured after 18 to 24 hrs incubation by NCCLS method; format: functional; conditions: time 18-24 hrs
[34] = system: Listeria monocytogenes; experiment: Antimicrobial activity against Listeria monocytogenes 1.10753 assessed as bacterial killing measured after 16 hrs incubation; format: functional
[35] = system: Escherichia coli; experiment: Antimicrobial activity against Escherichia coli K88 assessed as bacterial killing measured after 16 hrs incubation; format: functional
[36] = system: Bacillus cereus; experiment: Antimicrobial activity against Bacillus cereus 1.932 assessed as absence bacterial growth measured after 18 to 24 hrs incubation by NCCLS method; format: functional; conditions: time 18-24 hrs
[37] = system: Staphylococcus aureus; experiment: Antimicrobial activity against Staphylococcus aureus 29213 assessed as bacterial killing measured after 16 hrs incubation; format: functional
[38] = system: Acinetobacter baumannii; experiment: Antimicrobial activity against Acinetobacter baumannii 1.6769 assessed as bacterial killing measured after 16 hrs incubation; format: functional
[39] = system: Acinetobacter baumannii; experiment: Antimicrobial activity against Acinetobacter baumannii 1.6769 assessed as absence bacterial growth measured after 18 to 24 hrs incubation by NCCLS method; format: functional; conditions: time 18-24 hrs
[40] = Cytotoxicity against human HEK-293T cells assessed as cell survival rate measured after 8 hrs by MTT assay; format: toxicity, cell-based
[41] = system: Salmonella typhimurium; experiment: Antimicrobial activity against Salmonella typhimurium C7731 assessed as absence bacterial growth measured after 18 to 24 hrs incubation by NCCLS method; format: functional, Salmonella enterica subsp. enterica serovar Typhimurium; conditions: Salmonella enterica, time 18-24 hrs
[42] = system: Escherichia coli; experiment: Antimicrobial activity against Escherichia coli 25922 assessed as absence bacterial growth measured after 18 to 24 hrs incubation in presence of NaCl by NCCLS method; format: functional; conditions: time 18-24 hrs
[43] = system: Escherichia coli; experiment: Antimicrobial activity against Escherichia coli 25922 assessed as bacterial killing measured after 16 hrs incubation; format: functional
[44] = system: Staphylococcus epidermidis; experiment: Antimicrobial activity against Staphylococcus epidermidis 12228 assessed as absence bacterial growth measured after 18 to 24 hrs incubation by NCCLS method; format: functional; conditions: time 18-24 hrs
[45] = Cytotoxicity against mouse RAW264.7 cells assessed as cell survival rate measured after 8 hrs by MTT assay; format: toxicity, cell-based
[46] = Cytotoxicity against mouse RAW264.7 cells assessed as cell survival rate at 32 to 64 uM measured after 8 hrs by MTT assay relative to control; format: toxicity, cell-based; conditions: dose 32-64 µM, read-out: Activity
[47] = system: Escherichia coli; experiment: Antimicrobial activity against Escherichia coli 25922 assessed as absence bacterial growth measured after 18 to 24 hrs incubation in presence of 12.5% serum by NCCLS method; format: functional; conditions: time 18-24 hrs
[48] = system: Enterococcus faecalis; experiment: Antimicrobial activity against Enterococcus faecalis 29212 assessed as absence bacterial growth measured after 18 to 24 hrs incubation by NCCLS method; format: functional; conditions: time 18-24 hrs
[49] = Antimicrobial activity against Salmonella pullorum C7913 assessed as bacterial killing measured after 16 hrs incubation; format: functional, Salmonella enterica subsp. enterica serovar Pullorum; conditions: Salmonella enterica

Compound: CC(C)C[C@H](NC(=O)[C@H](CCCCN)NC(=O)CNC(=O)CNC(=O)[C@H](CCCCN)NC(=O)[C@H](CC(C)C)NC(=O)[C@H](Cc1c[nH]c2ccccc12)NC(=O)[C@H](CC(C)C)NC(=O)[C@H](CCCCN)NC(=O)CNC(=O)[C@H](C)NC(=O)[C@H](CCCCN)NC(=O)[C@H](CC(C)C)NC(=O)[C@H](Cc1c[nH]c2ccccc12)NC(=O)[C@H](CC(C)C)NC(=O)[C@H](CCCCN)NC(=O)CNC(=S)Nc1ccc2c(c1)C(=O)OC21c2ccc(O)cc2Oc2cc(O)ccc21)C(=O)N[C@@H](Cc1c[nH]c2ccccc12)C(=O)N[C@@H](CC(C)C)C(=O)N[C@@H](CCCCN)C(=O)NCC(N)=O ({FITC}-GKLWLKAGKLWLKGGKLWLKG-NH2)
- Drug uptake [1]: Active
- Drug uptake [2]: Active
- Drug uptake [3]: Active
- Drug uptake [4]: Active

Compound: H-GKLWLKGAKLWLKGGKLWLKG-NH2
- MBC [5]: 8 µM
- IC50 at 8 h [6]: > 64 µM
- MIC [7]: > 32 µM
- MBC [8]: 2 µM
- MIC [9]: 4 µM
- MIC [10]: 1 µM
- MIC [11]: 2 µM
- MIC [12]: 2 µM
- MIC [13]: 8 µM
- MBC [14]: 8 µM
- MIC [15]: 8 µM
- MBC [16]: 8 µM
- MIC [17]: 2 µM
- HC10 [18]: > 128 µM
- MIC [19]: 8 µM
- hemolysis at 1 h, 128 µM [20]: < 10%
- MBC [21]: 8 µM
- MIC [22]: > 32 µM
- MIC [23]: 4 µM
- MIC [24]: 2 µM
- MIC [25]: 1 µM
- MBC [26]: 16 µM
- viability at 8 h, 64 µM [27]: < 50%
- MBC [28]: 8 µM
- MIC [29]: 2 µM
- viability at 8 h, 64 µM [30]: < 50%
- MIC [31]: 2 µM
- MBC [32]: 8 µM
- MIC [33]: > 32 µM
- MBC [34]: > 32 µM
- MBC [35]: 1 µM
- MIC [36]: 2 µM
- MBC [37]: 8 µM
- MBC [38]: 4 µM
- MIC [39]: 4 µM
- IC50 at 8 h [40]: > 64 µM
- MIC [41]: 4 µM
- MIC [42]: 16 µM
- MBC [43]: 2 µM
- MIC [44]: 8 µM
- IC50 at 8 h [45]: > 64 µM
- viability at 8 h, up to 64 µM [46]: 60%
- MIC [47]: 32 µM
- MIC [48]: 16 µM
- MBC [49]: 2 µM

Reference: ChEMBL document CHEMBL5518215, “Unlocking Antibacterial Potential: Key-Site-Based Regulation of Antibacterial Spectrum of Peptides” (J Med Chem, 2024)
